Values joined by “and” are separate entries in the source; they are usually repeats but may differ in a detail not shown here. Identical values can stand only once.
Assays:
[1] = oxygen radical absorbance capacity (ORAC) assay; assay type: biochemical
Procedure: FIGS. 6 and 7 illustrate ORAC and CAP-e antioxidant tests conducted on Dihydroquercetin (taxifolin). The ORAC test measures the scavenging capacity at 37° C. of peroxyl radical induced by 2,2 -azobis-(2-amidinopropane) dihydrochloride (AAPH) using fluorescence at a wavelength of 565 nm with excitation at 540 nm. The results are calculated and expressed as milimoles of Trolox equivalents per gram. This test is widely used for evaluation and comparison of the antioxidant capacity in natural products and extracts and has been successfully applied to bioavailability studies, showing increased antioxidant capacity in serum in test subjects after consumption of antioxidant-rich foods.
Two different but synergistic testing principles are shown in FIG. 6: (A) The oxygen radical absorbance capacity (ORAC) assay is a chemical test, in which interference with specific chemical reactions are measured; (B) The cell-based antioxidant protection in erythrocytes (CAP-e) assay reflects whether antioxidants can enter into and protect live cells from oxidative damage. Dihydroquercetin (taxifolin) has the ORAChydrophilic assay over 15,000 μmol TE/g.

[2] = concentration 0.001%; cooled samples, traditional recipe; day 7 of storage; cited from earlier work
rats = details: high levels, long periods of time; cited from earlier work
serum and liver lipids = details: following exposure to toxic ionizing radiation; cited from earlier work
lipid peroxidation = details: in vitro and ex vivo; cited from earlier work
[3] = lard, cottonseed oil, and butter oil; cited from earlier work
[4] = milks produced during the dry-lot regime; cited from earlier work

Question: With `O=C1c2c(O)cc(O)cc2OC(c2ccc(O)c(O)c2)C1O` (stereo not shown) [Dihydroquercetin (taxifolin)] as the compound, how does the ORAChydrophilic assay [1] read?
Answer: over 15,000 μmol TE/g

Question: What about the “peroxide values lower by” value [2] of the same compound?
Answer: 57.1% and 58.60%

Question: What about the toxic effects (rats) of the same compound?
Answer: No toxic effects were observed

Question: And the “peroxidation of serum and liver lipids” value (serum and liver lipids)?
Answer: inhibited

Question: And the lipid peroxidation (lipid peroxidation)?
Answer: inhibits

Question: And the antioxidant effect [3]?
Answer: effective antioxidant

Question: And the “development of spontaneous oxidation” value [4]?
Answer: inhibited

From US20130287919A1, “METHOD OF USING DIETARY INGREDIENTS DIHYDROQUERCETIN (TAXIFOLIN), ARABINOGALACTAN AND ARABINOGALACTAN IN COMBINATION WITH DIHYDROQUERCETIN (TAXIFOLIN) FOR APPLICATIONS IN FOOD PRODUCTS” (FLAVITPURE, INC., priority 2012, published 2013)
